Test results published in patent US11530244B2, “Cyclic polypeptides for PCSK9 inhibition” (priority 2018, dated 2022).
Starred links: 1 amine or outer side, 2 acyl side, 3 side chain; linkers in the order of their positions; H or OH if unused. Positions of bridges follow the written chain, without caps; N, C: chain ends. Non-standard residues stand in square brackets, D forms with d. Residues, ends and D or L forms follow the SMILES beside them. X43 = O=C(CC[S+]([O-])Cc1cc(F)cc(CSCCN[*:1])c1)[*:2]; Nle(6-ylidene) = O=C([C@H](CCCC=[*:3])N[*:1])[*:2]; X18 = O=C([C@@H](Cc1cccc(OCC=[*:3])c1)N[*:1])[*:2]; X24 = O=C(CCCCSc1c(F)c(F)c(SCCN[*:1])c(F)c1F)[*:2]; X25 = O=C([C@H](Cc1cccc(OCC=[*:3])c1)N[*:1])[*:2]; X26 = O=C([C@@H]1[C@@H](OCC=[*:3])CCN1[*:1])[*:2]; Trp(5-F) = N[C@@H](Cc1c[nH]c2ccc(F)cc12)C(=O)O; X42 = CN([C@@H](CCC=[*:3])C(=O)[*:2])[*:1]; X16 = O=C([C@H](CCCCCC=[*:3])N[*:1])[*:2]; X12 = O=C([C@H](CCCCC=[*:3])N[*:1])[*:2]; X13 = O=C(CCCCc1cccc(CCCCN[*:1])c1)[*:2]; X4 = O=C(CCSCc1cccc(CSCCN[*:1])c1)[*:2]; Hag = O=C([C@H](CCC=[*:3])N[*:1])[*:2]; mXylylene = c1cc(C[*:1])cc(C[*:2])c1; AllylGly = C=CC[C@H](N)C(=O)O; αMeP = C[C@@]1(C(=O)O)CCCN1

Assays:
[1] = target: human PCSK9 / human LDLR EGFa domain interaction (Homo sapiens (Human), UniProt Q8NBP7); experiment: TR-FRET assay of inhibition of the PCSK9-LDLR protein-protein interaction; type: binding; conditions: TR-FRET, 20 nM human PCSK9, 20 nM human LDLR EGFa domain, 2 hours room temperature; read-out: IC50
human PCSK9 / human LDLR EGFa domain interaction, sequence (Q8NBP7 153-692): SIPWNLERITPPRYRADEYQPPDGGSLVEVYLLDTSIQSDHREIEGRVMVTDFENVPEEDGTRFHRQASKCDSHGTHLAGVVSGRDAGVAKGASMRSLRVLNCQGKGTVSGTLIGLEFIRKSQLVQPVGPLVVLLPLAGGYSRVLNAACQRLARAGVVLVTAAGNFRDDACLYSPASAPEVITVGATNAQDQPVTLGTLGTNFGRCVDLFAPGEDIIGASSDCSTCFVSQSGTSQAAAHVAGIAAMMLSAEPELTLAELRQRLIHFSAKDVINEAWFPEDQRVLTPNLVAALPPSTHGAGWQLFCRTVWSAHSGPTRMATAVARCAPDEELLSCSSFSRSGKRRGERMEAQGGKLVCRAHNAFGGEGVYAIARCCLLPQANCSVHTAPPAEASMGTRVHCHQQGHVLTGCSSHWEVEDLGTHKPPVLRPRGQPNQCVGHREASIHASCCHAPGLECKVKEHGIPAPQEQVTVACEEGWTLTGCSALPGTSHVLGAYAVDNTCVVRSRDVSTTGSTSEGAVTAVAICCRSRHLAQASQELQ
human PCSK9 / human LDLR EGFa domain interaction, sequence (Q8NBP7 31-152 partner): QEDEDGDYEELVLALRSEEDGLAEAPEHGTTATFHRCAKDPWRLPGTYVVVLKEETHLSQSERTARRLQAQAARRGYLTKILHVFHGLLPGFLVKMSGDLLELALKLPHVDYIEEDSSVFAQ
How it was run: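 Inhibition of PCSK9 binding to the LDLR EGFa domain, each protein at 20 nM, detected by TR-FRET using streptavidin and anti-His donor/acceptor labels (5 nM). Two-hour room-temperature incubation in calcium-containing HEPES buffer.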

PCSK9 = PCSK9 (Homo sapiens (Human), UniProt Q8NBP7); experiment: PCSK9 Alexa FRET Standard assay (displacement of AlexaFluor647 tagged cyclic peptide Reagent A); type: binding; conditions: PCSK9 Alexa FRET Standard assay, 0.5 nM PCSK9, 20 nM AF cyclic peptide Reagent A; read-out: IC50
PCSK9, sequence (Q8NBP7 153-692): as the sequence (Q8NBP7 153-692) above
How it was run: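 TR-FRET displacement: 0.5 nM biotinylated PCSK9 with 1.25 nM Strep-Eu and 20 nM AlexaFluor-tagged cyclic peptide (final) in 50 mM HEPES pH 7.4, 0.15 M NaCl, 5 mM CaCl2, 0.01% BSA, 0.01% P20, ≥2 h at room temperature. IC50 from sigmoidal fit, converted to Ki via peptide KD; falling Eu counts flagged false positives.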

IC50 [1] | IC50 (PCSK9) | Compound
1000 to 12100 nM | 1000 to 12100 nM | COc1ccc(C[C@@H]2NC(=O)[C@@H]3CC/C=C/CC[C@H](NC(=O)[C@H](Cc4c[nH]c5ccc(F)cc45)NC(=O)[C@H](Cc4c[nH]c5ccc(F)cc45)NC(=O)[C@@H](C)NC(=O)[C@H](CCCCN)NC(=O)CCSCc4cccc(c4)CSCCNC(=O)[C@]4(C)CCCN4C2=O)C(=O)N3)cc1 [Compound 493]
1000 to 12100 nM | 1000 to 12100 nM | COc1ccc(C[C@@H]2NC(=O)[C@H]([C@@H](C)O)NC(=O)[C@@H]3CCC/C=C/COc4cccc(c4)C[C@H](NC(=O)[C@@H](C)NC(=O)[C@H](CCCCN)NC(=O)CCSCc4cccc(c4)CSCCNC(=O)[C@]4(C)CCCN4C2=O)C(=O)N[C@@H](Cc2c[nH]c4ccc(F)cc24)C(=O)N3)cc1 [Compound 494] (cyclo(K[dA][X25][Trp(5-F)][Nle(6-ylidene)]TY(Me)[αMeP][X4]); staple (E) 3-5)
100 to 1000 nM | 0.11 to 100 nM | COc1ccc(C[C@@H]2NC(=O)[C@H]([C@@H](C)O)NC(=O)[C@@H]3CCCC/C=C\CCCC[C@H](NC(=O)[C@@H](C)NC(=O)[C@H](C)NC(=O)CCSCc4cccc(c4)CSCCNC(=O)[C@]4(C)CCCN4C2=O)C(=O)N[C@@H](Cc2c[nH]c4ccc(F)cc24)C(=O)N3)cc1 [Compound 495] (cyclo(A[dA][X12][Trp(5-F)][X12]TY(Me)[αMeP][X4]); staple (Z) 3-5)
100 to 1000 nM | 100 to 1000 nM | COc1ccc(C[C@@H]2NC(=O)[C@H]([C@@H](C)O)NC(=O)[C@@H]3CCCCC/C=C/CC[C@H](NC(=O)[C@@H](C)NC(=O)[C@H](C)NC(=O)CCSCc4cccc(c4)CSCCNC(=O)[C@]4(C)CCCN4C2=O)C(=O)N[C@@H](Cc2c[nH]c4ccc(F)cc24)C(=O)N3)cc1 [Compound 496] (cyclo(A[dA][Hag][Trp(5-F)][X16]TY(Me)[αMeP][X4]); staple (E) 3-5)
1000 to 12100 nM | 1000 to 12100 nM | C[C@@H]1NC(=O)CCSCc2cccc(c2)CSCCNC(=O)[C@]2(C)CCCN2C(=O)[C@H](Cc2ccc(O)cc2)NC(=O)[C@H](C)NC(=O)[C@@H]2C/C=C\COc3cccc(c3)C[C@@H](NC(=O)[C@@H](C)NC1=O)C(=O)N[C@@H](Cc1c[nH]c3ccc(F)cc13)C(=O)N2 [Compound 498] (cyclo(AY[αMeP][X4]A[dA][X18][Trp(5-F)][AllylGly]); staple (Z) 7-9)
1000 to 12100 nM | 1000 to 12100 nM | COc1ccc(C[C@@H]2NC(=O)[C@@H]3CCC/C=C\CO[C@H]4C[C@@H](C(=O)N3)N(C4)C(=O)[C@H](Cc3c[nH]c4ccc(F)cc34)NC(=O)[C@H](Cc3c[nH]c4ccc(F)cc34)NC(=O)[C@@H](C)NC(=O)[C@H](CCCCN)NC(=O)CCSCc3cccc(c3)CSC[C@@H](C(N)=O)NC(=O)[C@]3(C)CCCN3C2=O)cc1 [Compound 500]
100 to 1000 nM | 100 to 1000 nM | COc1ccc(C[C@@H]2NC(=O)[C@@H]3CCCCCCO[C@H]4C[C@@H](C(=O)N3)N(C4)C(=O)[C@H](Cc3c[nH]c4ccc(F)cc34)NC(=O)[C@H](Cc3c[nH]c4ccc(F)cc34)NC(=O)[C@@H](C)NC(=O)[C@H](CCCCN)NC(=O)CCSCc3cccc(c3)CSC[C@@H](C(N)=O)NC(=O)[C@]3(C)CCCN3C2=O)cc1 [Compound 506]
0.1 to 100 nM | 0.11 to 100 nM | COc1ccc(C[C@@H]2NC(=O)[C@H]([C@@H](C)OC)NC(=O)[C@@H]3CC/C=C/COc4cccc(c4)C[C@H](NC(=O)[C@@H](C)NC(=O)[C@H](C)NC(=O)CC[S+]([O-])Cc4cc(F)cc(c4)CSCCNC(=O)[C@]4(C)CCCN4C2=O)C(=O)N[C@@H](Cc2c[nH]c4ccc(F)cc24)C(=O)N3C)cc1 (stereo partly shown) [Compound 507] (cyclo(A[dA][X25][Trp(5-F)][X42]T(Me)Y(Me)[αMeP][X43]); staple (E) 3-5)
100 to 1000 nM | 0.11 to 100 nM | COc1ccc(C[C@@H]2NC(=O)[C@@H]3CC/C=C\CO[C@H]4C[C@@H](C(=O)N3)N(C4)C(=O)[C@H](Cc3c[nH]c4ccc(F)cc34)NC(=O)[C@H](Cc3c[nH]c4ccc(F)cc34)NC(=O)[C@@H](C)NC(=O)[C@H](CCCCN)NC(=O)CCSCc3cccc(c3)CSC[C@@H](C(N)=O)NC(=O)[C@]3(C)CCCN3C2=O)cc1 [Compound 509]
100 to 1000 nM | 0.11 to 100 nM | COc1ccc(C[C@@H]2NC(=O)[C@@H]3CCCCCCCO[C@H]4C[C@@H](C(=O)N3)N(C4)C(=O)[C@H](Cc3c[nH]c4ccc(F)cc34)NC(=O)[C@H](Cc3c[nH]c4ccc(F)cc34)NC(=O)[C@@H](C)NC(=O)[C@H](CCCCN)NC(=O)CCSCc3cccc(c3)CSC[C@@H](C(N)=O)NC(=O)[C@]3(C)CCCN3C2=O)cc1 [Compound 511]
0.1 to 100 nM | 0.11 to 100 nM | COc1ccc(C[C@@H]2NC(=O)[C@@H]3CCC/C=C\CO[C@H]4C[C@@H](C(=O)N3)N(C4)C(=O)[C@H](Cc3c[nH]c4ccc(F)cc34)NC(=O)[C@H](Cc3c[nH]c4ccc(F)cc34)NC(=O)[C@@H](C)NC(=O)CCCCCC(=O)NCc3ccc(cc3)C[C@@H](C(N)=O)NC(=O)[C@]3(C)CCCN3C2=O)cc1 [Compound 512]
100 to 1000 nM | 100 to 1000 nM | COc1ccc(C[C@@H]2NC(=O)[C@@H]3CC/C=C\CO[C@H]4C[C@@H](C(=O)N3)N(C4)C(=O)[C@H](Cc3c[nH]c4ccc(F)cc34)NC(=O)[C@H](Cc3c[nH]c4ccc(F)cc34)NC(=O)[C@@H](C)NC(=O)[C@H](C)NC(=O)[C@@H](NC(C)=O)CC(=O)NCc3ccc(cc3)C[C@@H](C(=O)O)NC(=O)[C@]3(C)CCCN3C2=O)cc1 [Compound 514]
0.1 to 100 nM | 0.11 to 100 nM | COc1ccc(C[C@@H]2NC(=O)[C@H](C)NC(=O)[C@@H]3CCCCNc4cc(ccn4)C[C@H](NC(=O)[C@@H](C)NC(=O)[C@H](C)NC(=O)CCSCc4cccc(c4)CSC[C@@H](C(N)=O)NC(=O)[C@]4(C)CCCN4C2=O)C(=O)N[C@@H](Cc2c[nH]c4ccc(F)cc24)C(=O)N3)cc1 [Compound 515]
0.1 to 100 nM | 0.11 to 100 nM | COc1ccc(C[C@@H]2NC(=O)[C@H]([C@@H](C)O)NC(=O)[C@@H]3[C@@H]4CCN3C(=O)[C@H](Cc3c[nH]c5ccc(F)cc35)NC(=O)[C@H](Cc3cccc(c3)OC/C=C/CO4)NC(=O)[C@@H](C)NC(=O)[C@H](C)NC(=O)CCSCc3cccc(c3)CSCCNC(=O)[C@]3(C)CCCN3C2=O)cc1 [Compound 516] (cyclo(A[dA][X25][Trp(5-F)][X26]TY(Me)[αMeP][X4]); staple (E) 3-5)

Compound | IC50 [1] | IC50 (PCSK9)
COc1ccc(C[C@@H]2NC(=O)[C@H](Cc3cnc[nH]3)NC(=O)[C@H](CC(=O)O)NC(=O)[C@H](Cc3c[nH]c4ccc(F)cc34)NC(=O)[C@H](Cc3c[nH]c4ccc(F)cc34)NC(=O)[C@@H](C)NC(=O)CCCCSc3c(F)c(F)c(c(F)c3F)SCCNC(=O)[C@]3(C)CCCN3C2=O)cc1 [Compound 483] (cyclo(DHY(Me)[αMeP][X24][dA][Trp(5-F)][Trp(5-F)])) | 0.1 to 100 nM | 0.11 to 100 nM
COc1ccc(C[C@@H]2NC(=O)[C@H]([C@@H](C)O)NC(=O)[C@@H]3CSCc4cccc(c4)CSC[C@H](NC(=O)[C@@H](C)NC(=O)[C@H](C)NC(=O)CCCCc4cccc(c4)CCCCNC(=O)[C@@H]4CCCN4C2=O)C(=O)N[C@@H](Cc2c[nH]c4ccc(F)cc24)C(=O)N3)cc1 [Compound 497] (cyclo(A[dA]C[Trp(5-F)]CTY(Me)P[X13]); linker 3-5 via mXylylene) | 100 to 1000 nM | 100 to 1000 nM
COc1ccc(C[C@@H]2NC(=O)[C@@H]3CCCC(=O)N[C@H]4C[C@@H](C(=O)N3)N(C4)C(=O)[C@H](Cc3c[nH]c4ccc(F)cc34)NC(=O)[C@H](Cc3c[nH]c4ccc(F)cc34)NC(=O)[C@@H](C)NC(=O)[C@H](C)NCCSCc3ccc(cc3)CSCCNC(=O)[C@]3(C)CCCN3C2=O)cc1 [Compound 519] | 1000 to 12100 nM | 1000 to 12100 nM
